According to patent publication US11186564B2, “Dual NAV1.2/5HT2a inhibitors for treating CNS disorders” (Sunovion Pharmaceuticals Inc., priority 2016, dated 2021):
pIC50: −log10 of the molar value.

Legend:
[1] = biological target: human sodium channel NaV1.2 (Homo sapiens, UniProt Q99250); assay: NaV1.2 inhibition, automated patch-clamp (Q-Patch HTX), slow inactivated state (state C); type: cell-based; conditions: hNaV1.2 CHO cells, slow inactivated state; for inhibition at 1 µM: 1 μM compound, read-out: NaV1.2 (% inh), 1 μM; for pIC50: read-out: NaV1.2 IC50; for inhibition at 10 µM: 10 μM compound, read-out: NaV1.2 (% inh), 10 μM
Procedure, shortened: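 CHO K-1 cells stably expressing human NaV1.2, whole-cell automated patch clamp, holding −100 mV; slow-inactivated state (state C) read at a 5 ms step to 0 mV after 10 s at −50 mV and 15 ms at −90 mV. Percent inhibition vs vehicle; IC50 by nonlinear least-squares fit.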

[2] = biological target: T1, recombinant human serotonin receptor 5-HT2A (Homo sapiens, UniProt P28223); assay: 5-HT2A antagonist Ca2+ assay in CHO-K1 cells (method A aequorin luminescence / method B FLIPR fluorescence); type: cell-based; conditions: antagonist mode vs EC80 of reference agonist, method A or B, read-out: 5HT2A IC50
T1 construct: expressed in transfected cells; method B: loaded with Ca2+ dye
Procedure, shortened: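 Method A: CHO-K1 cells co-expressing human 5-HT2A and mitochondrial apoaequorin were given reference agonist at EC80 15 min after compound, with luminescence read. Method B: dye-loaded 5-HT2A CHO-K1 cells were pretreated with compound, then given serotonin at EC80, with FLIPR fluorescence read. IC50s came from nonlinear fits of percent inhibition.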

T1 sequence (P28223 whole entry): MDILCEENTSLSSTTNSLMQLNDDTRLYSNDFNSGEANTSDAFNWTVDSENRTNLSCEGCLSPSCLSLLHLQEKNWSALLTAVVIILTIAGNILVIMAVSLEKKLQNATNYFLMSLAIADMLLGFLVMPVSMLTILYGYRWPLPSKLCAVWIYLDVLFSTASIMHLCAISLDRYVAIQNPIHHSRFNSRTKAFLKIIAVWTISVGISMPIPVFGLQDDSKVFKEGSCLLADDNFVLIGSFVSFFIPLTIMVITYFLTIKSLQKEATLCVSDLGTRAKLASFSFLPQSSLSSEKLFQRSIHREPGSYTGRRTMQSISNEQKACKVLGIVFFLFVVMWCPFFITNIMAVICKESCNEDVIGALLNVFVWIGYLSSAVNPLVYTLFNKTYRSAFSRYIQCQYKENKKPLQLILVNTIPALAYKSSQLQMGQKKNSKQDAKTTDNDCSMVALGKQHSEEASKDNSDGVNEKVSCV
human sodium channel NaV1.2, sequence (Q99250 whole entry): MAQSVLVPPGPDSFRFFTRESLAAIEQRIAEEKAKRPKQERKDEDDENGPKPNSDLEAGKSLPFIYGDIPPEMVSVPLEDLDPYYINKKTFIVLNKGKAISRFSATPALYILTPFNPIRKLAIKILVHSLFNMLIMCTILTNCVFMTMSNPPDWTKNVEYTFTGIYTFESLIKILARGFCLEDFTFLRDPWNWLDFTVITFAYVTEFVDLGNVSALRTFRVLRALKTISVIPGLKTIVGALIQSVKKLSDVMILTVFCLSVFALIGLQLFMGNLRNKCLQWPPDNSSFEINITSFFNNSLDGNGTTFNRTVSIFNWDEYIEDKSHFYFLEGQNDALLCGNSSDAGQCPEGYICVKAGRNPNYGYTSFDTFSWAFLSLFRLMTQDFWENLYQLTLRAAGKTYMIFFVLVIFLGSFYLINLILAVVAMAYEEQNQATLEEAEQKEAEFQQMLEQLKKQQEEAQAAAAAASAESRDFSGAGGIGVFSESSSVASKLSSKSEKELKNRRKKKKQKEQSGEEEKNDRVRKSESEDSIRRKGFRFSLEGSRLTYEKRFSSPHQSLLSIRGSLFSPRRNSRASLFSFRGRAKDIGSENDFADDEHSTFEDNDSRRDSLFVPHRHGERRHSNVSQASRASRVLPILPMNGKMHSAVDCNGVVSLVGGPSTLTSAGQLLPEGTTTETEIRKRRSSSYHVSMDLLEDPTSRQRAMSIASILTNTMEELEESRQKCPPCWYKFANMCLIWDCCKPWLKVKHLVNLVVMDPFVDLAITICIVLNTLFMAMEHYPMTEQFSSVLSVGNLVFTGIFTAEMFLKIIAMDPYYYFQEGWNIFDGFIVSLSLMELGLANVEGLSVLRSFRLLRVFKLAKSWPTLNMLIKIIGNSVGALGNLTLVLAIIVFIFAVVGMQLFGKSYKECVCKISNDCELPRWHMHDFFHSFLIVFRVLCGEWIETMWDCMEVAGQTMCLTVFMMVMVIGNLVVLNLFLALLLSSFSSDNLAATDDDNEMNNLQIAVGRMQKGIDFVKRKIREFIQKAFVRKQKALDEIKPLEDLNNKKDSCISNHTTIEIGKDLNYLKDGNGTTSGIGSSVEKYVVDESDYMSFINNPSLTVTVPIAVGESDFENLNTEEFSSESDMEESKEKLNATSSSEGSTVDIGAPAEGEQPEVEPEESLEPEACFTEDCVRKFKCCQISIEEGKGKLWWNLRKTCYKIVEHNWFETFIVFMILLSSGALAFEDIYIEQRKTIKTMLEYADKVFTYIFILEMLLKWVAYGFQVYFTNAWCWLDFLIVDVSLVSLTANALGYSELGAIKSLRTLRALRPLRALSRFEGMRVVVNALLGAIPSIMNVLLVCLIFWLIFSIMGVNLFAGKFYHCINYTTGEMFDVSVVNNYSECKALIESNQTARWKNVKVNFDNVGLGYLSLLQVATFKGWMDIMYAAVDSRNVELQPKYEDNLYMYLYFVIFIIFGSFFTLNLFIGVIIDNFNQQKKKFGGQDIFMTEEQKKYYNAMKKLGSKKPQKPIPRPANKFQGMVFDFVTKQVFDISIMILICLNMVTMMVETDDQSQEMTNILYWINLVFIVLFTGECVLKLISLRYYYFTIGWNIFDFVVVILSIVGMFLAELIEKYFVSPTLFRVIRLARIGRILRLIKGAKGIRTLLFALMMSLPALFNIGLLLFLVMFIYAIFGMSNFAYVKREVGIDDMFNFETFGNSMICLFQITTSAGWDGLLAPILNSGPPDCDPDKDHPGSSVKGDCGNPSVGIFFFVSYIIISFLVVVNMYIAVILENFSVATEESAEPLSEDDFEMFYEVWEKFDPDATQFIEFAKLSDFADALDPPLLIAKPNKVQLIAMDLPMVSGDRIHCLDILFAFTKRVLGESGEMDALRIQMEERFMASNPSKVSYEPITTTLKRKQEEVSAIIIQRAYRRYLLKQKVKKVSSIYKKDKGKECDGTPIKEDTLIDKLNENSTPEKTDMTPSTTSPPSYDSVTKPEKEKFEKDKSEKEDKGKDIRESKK

| inhibition at 1 µM [1] [%] | inhibition at 10 µM [1] [%] | Structure (SMILES) | pIC50 [2] | pIC50 [1] |
| --- | --- | --- | --- | --- |
| -3 | – | O=C1c2cccnc2CN1CCN1CCC(Oc2ccc(F)cc2)CC1 [Example 186, 6-(2-(4-(4-fluorophenoxy)piperidin-1-yl)ethyl)-6,7-dihydro-5H-pyrrolo[3,4-b]pyridin-5-one] | 8.00 | – |
| 13 | – | O=C1CCC(c2ccc(F)cc2)=NN1CN1CCC(Oc2ccc(F)cc2)CC1 [Example 167, 2-((4-(4-fluorophenoxy)piperidin-1-yl)methyl)-6-(4-fluorophenyl)-4,5-dihydropyridazin-3(2H)-one] | 7.05 | – |
| 14 | – | c1ccc2c(c1)CCC2CN1CCC2(CCc3cnccc3O2)CC1 (centres unmarked) [Example 404, 1-((2,3-dihydro-1H-inden-1-yl)methyl)-3′,4′-dihydrospiro[piperidine-4,2′-pyrano[3,2-c]pyridine]] | 6.96 | – |
| – | – | COc1ccc2c(c1)C(CN1CCC3(CCc4ccccc4O3)CC1)CC2 (centres unmarked) [Example 402, 1′-((6-methoxy-2,3-dihydro-1H-inden-1-yl)methyl)spiro[chromane-2,4′-piperidine]] | 5.97 | 7.15 |
| 16 | – | c1ccc2c(c1)CCC1(CN(CC3CCc4ccccc43)C1)O2 (centres unmarked) [Example 385, 1-((2,3-dihydro-1H-inden-1-yl)methyl)spiro[azetidine-3,2′-chromane]] | 6.27 | – |
| 9 | – | COc1ccc2c(c1)C(CN1CCC(Oc3ccccn3)CC1)CC2 (centres unmarked) [Example 95, 2-((1-((6-methoxy-2,3-dihydro-1H-inden-1-yl)methyl)piperidin-4-yl)oxy)pyridine] | 6.82 | – |
| 82 | – | COc1ccc2c(c1)C(CN1CC[C@@H](Oc3ccccc3OC)C[C@@H]1C)CC2 (stereo partly drawn) [Example 102, (2S,4R)-1-((6-methoxy-2,3-dihydro-1H-inden-1-yl)methyl)-4-(2-methoxyphenoxy)-2-methylpiperidine] | 6.82 | – |
| – | 8 | Clc1cccc(N2CCN(Cn3c(COc4ccccc4)nc4ccccc43)CC2)c1 [Example 61, 1-((4-(3-chlorophenyl)piperazin-1-yl)methyl)-2-(phenoxymethyl)-1H-benzo[d]imidazole] | 6.70 | – |
| – | – | c1ccc2c(c1)CCC1(CCN(CC3CCc4ccccc43)CC1)O2 (centres unmarked) [Example 401, 1′-((2,3-dihydro-1H-inden-1-yl)methyl)spiro[chromane-2,4′-piperidine]] | 7.30 | 6.96 |
| 50 | – | COc1ccccc1OC1CCN(CC2Cc3ccccc3C2)CC1 [Example 136, 1-((2,3-dihydro-1H-inden-2-yl)methyl)-4-(2-methoxyphenoxy)piperidine] | 7.22 | – |
| – | – | COc1ccccc1OC1CCN(CC2CCc3ccccc32)CC1(C)C (centres unmarked) [Example 103, 1-((2,3-dihydro-1H-inden-1-yl)methyl)-4-(2-methoxyphenoxy)-3,3-dimethylpiperidine] | 6.66 | 5.50 |
| – | – | O[C@@H](CO[C@@H]1CCCc2ccccc21)CN1CC[C@@H](Oc2ccc(F)cc2)C1 [Example 53, (R)-1-((R)-3-(4-fluorophenoxy)pyrrolidin-1-yl)-3-(((R)-1,2,3,4-tetrahydronaphthalen-1-yl)oxy)propan-2-ol] | 6.64 | 5.71 |
| – | – | OC(CO[C@@H]1CCCc2ccccc21)CN1CC[C@@H](Oc2ccc(F)cc2)C1 (stereo partly drawn) [Example 50, 1-((R)-3-(4-fluorophenoxy)pyrrolidin-1-yl)-3-(((R)-1,2,3,4-tetrahydronaphthalen-1-yl)oxy)propan-2-ol] | 7.22 | 5.89 |
| 36 | – | O=C1c2ccccc2CCN1CCN1C[C@@H]2C[C@H](C1)N(c1ccccc1)C2 [Example 329, 2-(2-((1S,5R)-6-phenyl-3,6-diazabicyclo[3.2.1]octan-3-yl)ethyl)-3,4-dihydroisoquinolin-1(2H)-one] | < 4.78 | – |
| 31 | – | CN1CCN(CC2CCc3ccccc32)CC(Oc2ccc(F)cc2)C1 (centres unmarked) [Example 277, 1-((2,3-dihydro-1H-inden-1-yl)methyl)-6-(4-fluorophenoxy)-4-methyl-1,4-diazepane] | 7.00 | – |
| – | – | COc1cccc(CCN2CCC3(CCc4ccccc4O3)CC2)c1 [Example 429, 1′-(3-methoxyphenethyl) spiro[chromane-2,4′-piperidine]] | 6.43 | 5.87 |
| 16 | – | c1ccc(C2COC3(C2)CN(CC2CCc4ccccc42)C3)cc1 (centres unmarked) [Example 359, 2-((2,3-dihydro-1H-inden-1-yl)methyl)-7-phenyl-5-oxa-2-azaspiro[3.4]octane] | 6.26 | – |
| – | 55 | O=C(CN1CCN(c2cccc(Cl)c2)CC1)c1ccccc1 [Example 66, 2-(4-(3-chlorophenyl)piperazin-1-yl)-1-phenylethan-1-one] | 6.05 | – |

| inhibition at 1 µM [1] [%] | inhibition at 10 µM [1] [%] | Structure (SMILES) | pIC50 [2] | pIC50 [1] |
| --- | --- | --- | --- | --- |
| – | 38 | O=C1c2cccnc2CCN1CCN1CCC(Oc2ccc(F)cc2)CC1 [Example 207, 6-(2-(4-(4-fluorophenoxy)piperidin-1-yl)ethyl)-7,8-dihydro-1,6-naphthyridin-5(6H)-one] | 7.52 | – |
| – | – | OC(CO[C@H]1CCc2ccccc21)CN1CCC(Oc2ccc(F)cc2)CC1 (stereo partly drawn) [Example 235, 1-(((S)-2,3-dihydro-1H-inden-1-yl)oxy)-3-(4-(4-fluorophenoxy)piperidin-1-yl)propan-2-ol] | 6.72 | 6.47 |
| – | – | c1ccc2c(c1)CCC1(CCN(CCO[C@H]3CCc4ccccc43)CC1)O2 [Example 432] | 6.82 | 6.44 |
| – | 94 | COc1cccc(CN2CCC3(CCc4ccccc4O3)CC2)c1 [Example 417, 1′-(3-methoxybenzyl) spiro[chromane-2,4′-piperidine]] | 6.16 | – |
| – | – | O=C1c2cc(Cl)ccc2CCCN1CCN1CCC(Oc2ccc(F)cc2)CC1 [Example 209, 8-chloro-2-(2-(4-(4-fluorophenoxy)piperidin-1-yl)ethyl)-2,3,4,5-tetrahydro-1H-benzo[c]azepin-1-one] | 7.70 | 6.57 |
| – | – | O=C1c2ccc(Br)cc2CCCN1CCN1CCC(Oc2ccc(F)cc2)CC1 [Example 213, 7-bromo-2-(2-(4-(4-fluorophenoxy)piperidin-1-yl)ethyl)-2,3,4,5-tetrahydro-1H-benzo[c]azepin-1-one] | 7.10 | 6.74 |
| – | 85 | N#Cc1ccc(OCCN2CCN(c3nsc4ccccc34)CC2)cc1 [Example 67, 4-(2-(4-(benzo[d]isothiazol-3-yl)piperazin-1-yl)ethoxy)benzomtnle] | 8.00 | – |
| – | – | c1ccc2c(c1)CC(CN1CCC3(CC1)Cc1ccccc1O3)C2 [Example 396, 1′-((2,3-dihydro-1H-inden-2-yl)methyl)-3H-spiro[benzofuran-2,4′-piperidine]] | 7.05 | 6.77 |
| – | – | c1ccc2c(c1)CCC1(CCN(CC3COc4ccccc43)CC1)O2 (centres unmarked) [Example 409] | 6.03 | 5.55 |
| – | – | Cc1cccc(N2CCN(CC3(O)COCc4ccccc43)CC2)c1C (centres unmarked) [Example 56, 4-((4-(2,3-dimethylphenyl)piperazin-1-yl)methyl)isochroman-4-ol] | 6.89 | 6.37 |
| – | 92 | OC(COc1ccccc1)CN1CCC2(CC1)Cc1ccccc1O2 (centres unmarked) [Example 399, 1-phenoxy-3-(3H-spiro[benzofuran-2,4′-piperidin]-1′-yl)propan-2-ol] | 5.74 | – |
| – | – | COc1ccc2c(c1)C(CN1CCC(NS(=O)(=O)c3ccc(F)cc3)CC1)CC2 (centres unmarked) [Example 250, 4-fluoro-N-(1-((6-methoxy-2,3-dihydro-1H-inden-1-yl)methyl)piperidin-4-yl)benzenesulfonamide] | 7.15 | 6.70 |
| 14 | – | COc1ccc2c(c1)C(CN1CCC[C@@H](Oc3ccc(F)cc3)C1)CC2 (stereo partly drawn) [Example 255, (3R)-3-(4-fluorophenoxy)-1-((6-methoxy-2,3-dihydro-1H-inden-1-yl)methyl)piperidine] | 6.44 | – |
| – | – | COc1ccccc1O[C@@H]1CCN(CC2Cc3ccccc3C2)[C@@H](C)C1 [Example 142, (2S,4R)-1-((2,3-dihydro-1H-inden-2-yl)methyl)-4-(2-methoxyphenoxy)-2-methylpiperidine] | 6.52 | 6.04 |
| – | 46 | COCc1cccc(OC2CCN(CCN3CCCc4ccccc4C3=O)CC2)c1 [Example 206, 2-(2-(4-(3-(methoxymethyl)phenoxy)piperidin-1-yl)ethyl)-2,3,4,5-tetrahydro-1H-benzo[c]azepin-1-one] | < 5.89 | – |
| – | – | c1ccc([C@H]2COC3(CCN(C[C@H]4CCc5ccccc54)CC3)C2)cc1 (single isomer, unassigned) [Compound 377] | 7.52 | 6.10 |
| – | – | OC(COc1ccccc1)CN1CCC2(CCc3ccccc3O2)CC1 (centres unmarked) [Example 439, 1-phenoxy-3-(spiro[chromane-2,4′-piperidin]-1′-yl)propan-2-ol] | 8.00 | 6.30 |
| – | – | OC(COC1CCCc2ccccc21)CN1CCN(Cc2ccccc2)CC1 (centres unmarked) [Example 83, 1-(4-benzylpiperazin-1-yl)-3-((1,2,3,4-tetrahydronaphthalen-1-yl)oxy) propan-2-ol] | 5.54 | 7.70 |

| Structure (SMILES) | inhibition at 1 µM [1] [%] | inhibition at 10 µM [1] [%] | pIC50 [2] | pIC50 [1] |
| --- | --- | --- | --- | --- |
| O[C@H](COC1CCCCC1)CN1CC2(CC(c3ccccc3)CO2)C1 (stereo partly drawn) [Example 360, (2S)-1-(cyclohexyloxy)-3-(7-phenyl-5-oxa-2-azaspiro[3.4]octan-2-yl)propan-2-ol] | 4 | – | 6.89 | – |
